Data on six compounds can be found in PMC7801736 (ACS infectious diseases, 2019).

≈ marks a conversion by molar mass, not a printed value. Like-named read-outs stand apart in the source and are kept apart here.

In test [1] the test system is M. tuberculosis strain H37Rv. The test is classed as cell-based, Mycobacterium tuberculosis. The settings on record: H37Rv background.
Test [2] concerns M. tuberculosis inhA overexpression strain mc^24914. As to the kind of experiment: microbe, parasite or virus in culture. The test is classed as cell-based, Mycobacterium tuberculosis. The settings on record: for MIC: Mycobacterium tuberculosis.
The subject of test [3] is M. tuberculosis strain H37Rv. The settings on record: cited from earlier work.
The mark [4] stands for this setting: read-out: MIC (µM) mc^24914, Table 1, commercial material, […].
Where [5] appears, read: read-out: MIC (µM) mc^24914, Table 2, synthetic material.

On to `COc1cccc(Nc2ccc([N+](=O)[O-])c3nonc23)c1` [JSF-2164, N-(3-methoxyphenyl)-7-nitrobenzo[c][1,2,5]oxadiazol-4-amine], for which the “mutation rate (spontaneous resistance)” value in test [1] was ~10^−5. The MIC stood at 30 µM (≈ 8.59 µg/mL) in test [2] (setting [4]) and 25 µM (≈ 7.16 µg/mL) in test [2] (setting [5]). For the same compound, the “MIC shift versus the inhA overexpression strain as compared to H37Rv” value in test [2] (mc^24914 vs H37Rv) came to 3 fold.

`COc1cccc(Nc2ccc(N)c3nonc23)c1` [JSF-3616, N4-(3-methoxyphenyl)-benzo[c][1,2,5]oxadiazole-4,7-diamine]: the MIC in test [2] (setting [5]) worked out at 32 µM (≈ 8.2 µg/mL).

For the compound `COc1cccc(Nc2ccc3nonc3c2N)c1` [JSF-3617, N5-(3-methoxyphenyl)benzo[c][1,2,5]oxadiazole-4,5-diamine], in test [2] (setting [5]), the MIC is 125 µM (≈ 32 µg/mL).

For `NNC(=O)c1ccncc1` [isoniazid, reference compound], the MIC in test [2] (setting [4]) and in test [2] (setting [5]) was 2.5 µM (≈ 0.343 µg/mL) in each case.

For the compound `O=[N+]([O-])c1cn2c(n1)OC[C@@H](OCc1ccc(OC(F)(F)F)cc1)C2` [pretomanid], the frequency of resistance in test [3] is listed as 10^−5 to 10^−6.

Consider `Oc1cc(Cl)ccc1Oc1ccc(Cl)cc1Cl` [triclosan, reference compound], for which the MIC in test [2] (setting [4]) was found to be 120 µM (≈ 34.7 µg/mL).
